PubChem BioAssay AID504630 (Southern Research Specialized Biocontainment Screening …, 2011)

Test system: human PBMC cytotoxicity, % cell control
Assay: PBMC viability reduction by test compounds – cell-based, human PBMC, set 3, cytotoxicity control for HIV-1 antiviral project, dose response (AID 504630)

## Cc1c2c(=O)n(-c3nc4ccccc4s3)nc-2cc(O)n1Cc1ccccc1
  TC50: 13.2 µM
